Laboratory results reported in a melting point compilation (Tetko et al.; mined from patent text by program, amines drawn as free bases though some values may be those of a salt).

Row | SMILES | melting point
1 | CCCC(CC)(C(=O)N(C)C)n1cc(C)c(-c2ccccc2)n1 (stereo not drawn) | 147 to 148 °C
2 | COc1cc(OC)cc(-n2c(-c3ccccc3)cc(=O)c(C)c2-c2ccccc2)c1 | 232 to 236 °C
3 | CNC(=O)c1cccc(C2C(C(=O)c3ccc(OC)cc3)=C(O)C(=O)N2c2nnc(C)s2)c1 (stereo not drawn) | 238 °C
4 | Nc1ccc(CS(=O)(=O)NC2CCCCC2)cc1 | 141 to 143 °C
5 | CCCCCCCC[C@H](C)C(=O)Oc1ccc(C(=O)O)cc1 | 92.5 to 96.5 °C
6 | O=c1[nH]c2ncc(-c3ccccc3)nc2n1CC1CCCCC1 | 253 to 255 °C
7 | C[C@@H](S[C@H]1CO[C@H](c2ccc(C(=O)Nc3ccncc3)cc2)OC1)[C@](O)(Cn1cncn1)c1ccc(F)cc1F | 133 °C
8 | NNc1nc2cc(Cl)c(Cl)cc2nc1Cl | < 260 °C
9 | CCCCC(C)(CC)C(=O)C(Oc1ccc(-c2ccccc2)cc1)n1cnnc1 (stereo not drawn) | 67 to 68 °C
10 | Cc1cc(Br)ccc1-n1c(CF)nc2ccc(N)cc2c1=O | 194 to 196 °C
11 | O=C(O)c1cn2c3c(c(N4CCNCC4)ccc3c1=O)CCC2 | 267 to 268 °C
12 | Oc1ccc2c(c1)CCCC(c1ccccc1)=C2c1ccc(OCCCCCI)cc1 | 192 to 193 °C
13 | COc1ccc(NC(=O)C2CCc3c(OCc4ccccc4)cccc32)c(OC)c1 (stereo not drawn) | 130 °C
14 | CC(=O)Nc1ncc(Sc2nnnn2C)s1 | 208 to 210 °C
15 | NC(=O)C(=O)NC(C(=O)O)c1ccccc1 (stereo not drawn) | 193 °C
16 | O=C(O)c1ccc(CCCC2SCC(=O)N2CC#CC2(O)CCCCC2)cc1 (stereo not drawn) | 112 to 115 °C
17 | CS(=O)(=O)OCC1(COc2ccc(Br)cc2)COC1 | 89 to 91 °C
18 | Cc1nc2c(O[C@@H]3c4ccccc4C[C@H]3O)cc(C(=O)NC3CC3)cc2n1C (relative stereo) | 148 to 149 °C
19 | NC(=O)ON(Cc1ccccc1)Cc1ccccc1 | 127 to 129 °C
20 | N#Cc1cc(N)c(Cl)c(N)c1 | 172 °C
21 | CC(Cc1nc(-c2ccccc2)nc2ccccc12)C(=O)N(C)C(C)C (stereo not drawn) | 171 °C
22 | Cc1nc(N)c2nc(CO)n(NCc3cccnc3)c2c1C | 258 to 260 °C
23 | Cc1cc(NC(=O)NCc2ccc3c(c2)CN(C2CCC(=O)NC2=O)C3=O)ccc1O (stereo not drawn) | 210 to 212 °C
24 | CCCN(CCC)c1c(C#N)cnn1-c1ccc(Cl)c(Cl)c1Cl | 99 to 100 °C
25 | CCc1nc2c(cnn2CC)c(NC2CCOCC2)c1CNC(=O)c1cccc(C(=O)NCc2ccc(C)c(Br)c2)c1 | 175 to 176 °C

Row | SMILES | melting point
26 | CN1C(=O)C(CCCCNC(=O)OCc2ccccc2)NC1=S (stereo not drawn) | 135 °C
27 | Cc1cc(CCCCCOc2c(C)cc(-c3nnn(CCO)n3)cc2C)on1 | 69 to 70 °C
28 | CNc1nc(Cl)c(SC)c(N2CCN(c3ccccc3)CC2)n1 | 163 to 164 °C
29 | CSC1=C([N+](=O)[O-])CCCN1 | 230 to 232 °C
30 | CN1Cc2c(ccc(F)c2Cl)-n2c(c(C#CC(C)(C)O)[nH]c2=O)C1 | 208 to 209 °C
31 | Oc1ccc2c(c1)C[C@@H](NC[C@H](O)c1ccc(OCc3ccccc3)cc1)CC2 | 132 to 134 °C
32 | C=C1C(OC(C)=O)C(CO)OC1n1ccc(NC(C)=O)nc1=O (stereo not drawn) | 174 to 175 °C
33 | COc1c(C2CCN(CCCCNC(=O)c3sc(-c4ccc(Cl)cc4)nc3CO)CC2)ccc2c1CCCC2 | 198 to 200 °C
34 | NS(=O)(=O)Oc1ccc(C(c2ccc(OS(N)(=O)=O)c(Br)c2)n2cncn2)cc1Br | 98 to 102 °C
35 | Cc1cn(C2CCc3ccccc3C2)c(=S)n1Cc1ccc(C(=O)O)cc1 (stereo not drawn) | 181 to 182 °C
36 | Cc1c(N(C)C)c(F)cc2c(=O)[nH]c(=O)n(C3CC3)c12 | 238 to 239 °C
37 | COc1ncccc1-c1cnn2ccc(N3CCN(C(=O)OC(C)C)CC3)nc12 | 131 to 132 °C
38 | CCC(C)COc1ccc(-c2ccc(O)cc2)cc1Br (stereo not drawn) | 75 to 76.5 °C
39 | COc1ccc(CN(C)CCOc2ccc(NC(=O)c3cccc4c(=O)c5ccccc5[nH]c34)cc2)cc1OC | 140 °C
40 | Nc1nc(-c2ccncc2)nc2[nH]c(S)nc12 | > 330 °C
41 | CCN(CC)CC(=O)N1c2ccccc2NC(=O)c2c1c(C)cn2C | 174 to 175 °C
42 | Cc1oc(-c2ccccc2)nc1CCOc1ccc(COc2ccccc2CC(=O)O)cc1 | 141 to 142 °C
43 | CCCCCCCCCCCCCCCCCCOc1cc(N)cc(C(=O)N(CC(=O)O)CC(=O)O)c1 | 108 to 120 °C
44 | Cc1ccc(SSc2ccc(C)cc2C(=O)Nc2ccc(S(N)(=O)=O)cc2)c(C(=O)Nc2ccc(S(N)(=O)=O)cc2)c1 | 307 °C
45 | Cc1ccc(S(=O)(=O)OCCc2ccc3cc(Br)ccc3n2)cc1 | 107 to 109 °C
46 | CCCCCCCCCCCCCSc1nnc(NC(=O)Nc2c(C(C)C)cccc2C(C)C)[nH]1 | 131 to 135 °C
47 | O=[N+]([O-])c1ccc(Oc2ccc3c(c2)Nc2ccccc2S3)cc1 | 210 to 211 °C
48 | CCOC(=O)C=Cc1ccc(-n2ccnc2)cc1 | 96 to 97.5 °C
49 | O=C(c1cccs1)c1cnn2c(-c3cccc(NCC4CCCCC4)c3)ccnc12 | 101 to 104 °C

The next lines start with the values.

Row | melting point | SMILES
50 | 110 to 112 °C | Cc1c(-c2ccc(Cl)cc2Cl)nn(C)c1S(C)(=O)=O
51 | 127 to 129 °C | O=C(O)Cc1c(F)c(F)nc(F)c1Cl
52 | 67 to 69 °C | CCCCC(Cn1cnc([N+](=O)[O-])c1)c1ccc(Cl)cc1Cl (stereo not drawn)
53 | 193 to 194 °C | COc1ccc(-c2nc(-c3ccccc3)c3ncc(Cl)cc3n2)cc1
54 | 304 °C | O=C(Nc1ncco1)c1cnc2c(C(F)(F)F)cccc2c1O
55 | 212 to 213 °C | Cc1nc(-c2cn(Cc3ccc(F)cc3)nn2)sc1C(=O)NCc1cccnc1
56 | 78 °C | NN=C(c1ccc(F)cc1)c1ccc(F)cc1
57 | 265 to 266 °C | CCOC(=O)c1cn2c3c(c(F)c(F)cc3c1=O)OCC2
58 | 45 to 48 °C | CN1C=CCC(C(=O)NCCc2ccc(OC(=O)C(C)(C)C)c(OC(=O)C(C)(C)C)c2)=C1
59 | 110 to 126 °C | CCOCc1cnc2c([N+](=O)[O-])cccc2c1Cl
60 | 204 to 206 °C | COC(=O)c1nc2n(n1)-c1ccccc1N(c1cccc(C(F)(F)F)c1)C2
61 | 216 to 219 °C | NC(=O)c1ccc(-c2ccc3nnn(Cc4c(F)cc5ncccc5c4F)c3n2)cc1Cl
62 | 250 to 252 °C | CCn1c(=O)c2nc(C(=O)O)cn2c2ccccc21
63 | 139 to 140 °C | N#Cc1c(N2CCc3ccccc3CC2)nc[nH]c1=O
64 | 256 to 258 °C | O=C(c1c[nH]c2cc(Cl)ccc12)C(F)(F)F
65 | 178 to 179 °C | Cc1nn(C)c2c1N(C(=O)CN(C)C)c1ccccc1NC2=O
66 | 139 to 140 °C | CC(c1ccccc1)N1C(=O)NC(=O)C1O (stereo not drawn)
67 | 218 °C | Cc1ccc2c(c1)c(O)c(C(=O)NC1CCCCC1)c(=O)n2C
68 | 173 to 174 °C | CC(C)(C)OC(=O)CCc1ccnc(-c2nc(=O)c3ccc(Br)cc3s2)c1
69 | 93 to 94 °C | O=C1CCC(=O)C1C(=O)CCc1ccc2c(c1)OCO2
70 | 205 to 206 °C | COc1ccc(CNC(=O)c2[nH]c3ccc(Cl)cc3c2S(=O)(=O)c2ccccc2)cc1
71 | 163 to 164 °C | Cc1cn(-c2ccc(N)cc2C(F)(F)F)c(C)n1
72 | 108 to 110 °C | CC(CO)N1C(=O)N(c2ccc(Cl)cc2)CC1C (stereo not drawn)
73 | 114 to 117 °C | COc1ccc(Cl)cc1N1CCN(CCNc2nccc(C(=O)N3CCC(Nc4nc(=O)cc[nH]4)CC3)n2)CC1
74 | 207 °C | Cn1nc(-c2cc3c(cc2F)OCC(=O)N3)c(Cl)c1C(F)(F)F
75 | 127 to 129 °C | CCCC(=O)N(CC)c1cccc(-c2ccc3nnc(C)n3n2)c1
76 | 95 to 97 °C | CCSC(=NC(=O)c1ccccc1)Nc1ccccc1F

Row | melting point | SMILES
77 | 195 to 196 °C | O=C(O)/C=C/c1cc(OCC2CC2)nn1Cc1ccc(C(F)(F)F)cc1Cl
78 | 302 to 303 °C | O=C1CCCc2[nH]c(=O)ccc21
79 | 52 to 57 °C | Cc1ccc2oc(Br)c(-c3ccccc3)c2c1
80 | 63.9 °C | CC#CCOc1cc(-c2ccc(F)cc2F)ncn1
81 | 100 to 103 °C | CC(=O)c1ccc2c(c1)oc(=O)n2CCCCl
82 | 137 to 139 °C | CN1C(=O)CCC1(O)c1cccc(C(F)(F)F)c1 (stereo not drawn)
83 | 134 to 136 °C | O=C1C2CCCC2=Nc2ccc(Cl)cc2N1Cc1ccccc1 (stereo not drawn)
84 | 180 °C | CCOc1cccc(-c2nc(=O)c3ccccc3s2)n1
85 | 126 to 129 °C | COc1cc(C(=O)Cc2ccccc2)cc(Cl)c1Cl
86 | 165 °C | CC1N=C(c2ccccc2)NC1=O (stereo not drawn)
87 | 131 to 133 °C | O=C(C=Cc1ccc(F)c(F)c1)c1ccccc1O
88 | 151 °C | O=C(O)Cc1ccc(C2CC(=O)c3ccccc32)cc1 (stereo not drawn)
89 | 126 to 128 °C | Cc1c2n(c3ccccc13)CCC(Br)C2=O (stereo not drawn)
90 | 152 to 156 °C | Cc1cc2cnnc(Cl)c2n1Cc1ccccc1
91 | 133 °C | Cc1cc(SCc2ccc(OCc3ccc(C(F)(F)F)cc3)cc2)ccc1OCC(=O)O
92 | 167 to 169 °C | CSCc1cn(C)c2cc(F)ccc2c1=O
93 | 229 to 233 °C | CC(=O)Nc1ccc(S(=O)(=O)Nc2cc(Cl)nc(N3CCCC3)n2)cc1
94 | 135 °C | CN1C(=O)C(c2ccc(OCCF)cc2)(c2ccc(F)c(-c3cccnc3F)c2)N=C1N (stereo not drawn)
95 | 112 to 114 °C | N#CCCNC(=O)c1cccc(-c2ccc3c(c2)C(c2ccc(Cl)cc2Cl)CC3)c1 (stereo not drawn)
96 | 80 to 82 °C | FC(F)(F)CNC(=S)NCc1ccc(C(F)(F)F)cc1
97 | 77 to 78 °C | O=C(OCCO)c1ccc([N+](=O)[O-])cc1
98 | 135 °C | Cc1ccc(S(=O)(=O)c2cn(C(=O)OC(C)(C)C)c3cc(-c4ccc(F)cc4)ccc23)cc1
99 | 121 °C | NC(=O)c1ccc(F)c2c1CC(N(CCCc1c[nH]c3ccc(F)cc13)CC1CC1)CO2 (stereo not drawn)
100 | 130 to 132 °C | CC(=O)N1CCN(Cc2ccc(O)cc2)CC1
101 | > 260 °C | CN1CCC(Sc2ccc3[nH]c(=O)[nH]c(=O)c3c2)CC1
102 | 135 to 136 °C | NC(=NCC(F)(F)F)Nc1ccnc(CCCCO)n1
103 | 170 to 172 °C | CC(C)COc1c(-c2ccc(S(N)(=O)=O)cc2)cnn(CC(F)(F)F)c1=O
